Results: US5866397A, “Human protein tyrosine phosphatase OB protein” (Merck & Co., Inc., priority 1997, dated 1999)
Entries after “also recorded” stand apart in the source; their conditions may differ. Like-named read-outs stand apart in the source and are kept apart here.

Legend:
[1] = test system: multinucleated TRAP positive osteoclast-like cells; experiment: cells; assay type: cell-based, mouse
[2] = test system: mononucleated TRAP positive cells; assay type: cell-based, mouse
MB1.8 cells = experiment: Osteoblast proliferation (thymidine incorporation) in mouse calvaria derived MB1.8 cells; assay type: cell-based; conditions: micromolar concentrations
rat osteoclasts = experiment: cells; assay type: cell-based
PTP-OB = target: T1, PTP-OB (Homo sapiens, UniProt Q13332); experiment: PTP enzymatic assay with recombinant GST-PTP-OB fusion protein (FDP substrate); assay type: biochemical; conditions: pH 5.65, FIG. 8
T1 construct: we expressed the cytoplasmic domain of PTP-OB and PTPε in bacteria as a GST-fusion protein; made in house; host or cells: bacteria (vector pGEX-2TX, Pharmacia)
T1 sequence (Q13332 1303-1928 isoform Q13332-3 C1437R/N1685K): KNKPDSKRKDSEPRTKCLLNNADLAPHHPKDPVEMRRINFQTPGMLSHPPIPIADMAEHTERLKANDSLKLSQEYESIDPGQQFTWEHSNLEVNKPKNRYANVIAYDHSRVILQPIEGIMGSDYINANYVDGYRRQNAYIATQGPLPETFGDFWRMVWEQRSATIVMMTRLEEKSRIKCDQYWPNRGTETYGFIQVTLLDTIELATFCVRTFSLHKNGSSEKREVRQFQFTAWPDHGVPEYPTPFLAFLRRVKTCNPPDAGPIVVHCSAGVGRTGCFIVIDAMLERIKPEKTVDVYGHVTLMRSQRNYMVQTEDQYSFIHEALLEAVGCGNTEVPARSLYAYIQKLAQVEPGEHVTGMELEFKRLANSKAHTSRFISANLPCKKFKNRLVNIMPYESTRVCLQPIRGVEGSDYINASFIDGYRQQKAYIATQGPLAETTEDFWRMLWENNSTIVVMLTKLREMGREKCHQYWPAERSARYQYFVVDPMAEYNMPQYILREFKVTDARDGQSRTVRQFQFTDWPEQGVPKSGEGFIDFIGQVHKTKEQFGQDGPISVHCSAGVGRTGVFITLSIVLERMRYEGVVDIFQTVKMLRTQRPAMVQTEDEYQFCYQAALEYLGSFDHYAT

PTPε = PTPε (Mus musculus, UniProt P49446); experiment: PTP enzymatic assay with recombinant GST-PTPε fusion protein (FDP substrate)
bone resorption = conditions: organ cultures; Krieger and Tashjian; cited from earlier work
bone cells / osteoblasts = conditions: cited from earlier work
[3] = test system: osteoblasts and bone marrow cells
[4] = substrate: O=C1OC2(c3ccc(OP(=O)(O)O)cc3Oc3cc(OP(=O)(O)O)ccc32)c2ccccc21; experiment: purified protein, by the assay type; conditions: other: FDP as substrate of GST-PTPε; pH 5.65

COC1=C2C[C@@H](C)C[C@H](OC)[C@H](O)[C@@H](C)/C=C(\C)[C@H](OC(N)=O)[C@@H](OC)/C=C\C=C(/C)C(=O)NC(=CC1=O)C2=O [geldanamycin]
inhibition of formation of multinucleated TRAP positive cells [1]: complete inhibition
inhibition of osteoclast formation, in words [1]: potent inhibitor
IC50 ([1]; Mus musculus, Osteoclast-like, read-out: IC50, osteoclast formation): 0.05 µg/mL
appearance/development of mononuclear TRAP positive cells [2]: completely blocked; also recorded: inhibited the development of mononuclear TRAP positive cells

NCCCC(O)(P(=O)(O)O)P(=O)(O)O [alendronate]
inhibition of formation of multinucleated TRAP positive cells [1]: completely inhibited
thymidine incorporation (mitogenesis) of quiescent osteoblasts (MB1.8 cells): stimulated thymidine incorporation
inhibition at 10 µM (rat osteoclasts; Rattus norvegicus, Osteoclast, 24 h, read-out: reduction of the number of resorption pits): 80%
IC50 (PTP-OB): 200 nM
development of mononucleated TRAP positive cells [2]: did not block

CC(O)(P(=O)(O)O)P(=O)(O)O [etidronate]
IC50 (PTPε): ~400 nM
thymidine incorporation (mitogenesis) of quiescent osteoblasts (MB1.8 cells): stimulated thymidine incorporation

[O]=[V]([O-])([O-])[O-] [orthovanadate]
additional effect when added at earlier days of co-culture [1]: small additional effect
inhibition of formation of multinucleated TRAP positive cells [1]: completely inhibited
inhibition of formation of multinucleated TRAP positive cells, in words [1]: completely inhibited
inhibition of formation of multinucleated osteoclastic cells when added at any time up to day six [1]: ≥ 90%
inhibition of formation of the fused TRAP positive cells, in words [1]: markedly inhibited
block of formation of multinucleated TRAP positive cells when added at day six of co-culture ([1]; bone marrow/osteoblast co-culture, 1440 min): 80%
IC50 ([1]; read-out: IC50, formation of multinucleated TRAP positive cells): 2000 nM
thymidine incorporation (mitogenesis) of quiescent osteoblasts (MB1.8 cells): stimulated thymidine incorporation
inhibition of bone resorption, in words (rat osteoclasts): potent inhibitors
reduction of the number of resorption pits (rat osteoclasts; osteoclasts on bone slices, 1440 min, 10 µM): 80%
IC50 (rat osteoclasts; read-out: IC50, bone resorption): 2000 nM
stimulation of bone resorption induced by PTH (bone resorption): inhibited
bone cell / osteoblast proliferation (bone cells / osteoblasts): can stimulate osteoblast proliferation; also recorded: stimulated cell proliferation; also recorded: stimulation of cell proliferation
development of mononucleated TRAP positive cells [2]: did not block
formation of mononucleated TRAP positive cells [2]: produced mononucleated TRAP positive cells
effects on the co-cultured osteoblasts [3]: no ill effects
toxicity for osteoblasts or bone marrow cells [3]: no apparent toxicity

B1: PTPε (Mus musculus) (protein)
chain: RFRKQRKAVVSSNDKKMPNGILEEQEQQRVMLLSRSPSGPKKFFPIPVEHLEEEIRVRSADDCKRFREEFNSLPSGHIQGTFELANKEENREKNRYPNILPNDHCRVILSQVDGIPCSDYINASYIDGYKEKNKFIAAQGPKQETVNDFWRMVWEQRSATIVMLTNLKERKEEKCYQYWPDQGCWTYGNIRVCVEDCVVLVDYTIRKFCIHPQLPDSCKAPRLVSQLHFTSWPDFGVPFTPIGMLKFLKKVKTLNPSHAGPIVVHCSAGVGRTGTFIVIDAMMDMIHSEQKVDVFEFVSRIRNQRPQMVQTDVQYTFIYQALLEYYLYGDTELDVSSLERHLQTLHSTATHFDKIGLEEEFRKLTNVRIMKENMRTGNLPANMKKARVIQIIPYDFNRVILSMKRGQEFTDYINASFIDGYRQKDYFMATQGPLAHTVEDFWRMVWEWKSHTIVMLTEVQEREQDKCYQYWPTEGSVTHGDITIEIKSDTLSEAISVRDFLVTFKQPLARQEEQVRMVRQFHFHGWPEVGIPAEGKGMIDLIAAVQKQQQQTGNHPITVHCSAGAGRTGTFIALSNILERVKAEGLLDVFQAVKSLRLQRPHMVQTLEQYEFCYKVVQDFIDIFSDYANFK
Km [4]: 70 µM
